Results: US10758518B2, “Compounds and compositions for treating hematological disorders” (Curis, Inc., priority 2017, dated 2020)

Legend:
[1] = system: ABC-DLBCL cell line OCI-Ly10 (MYD88-L265P, CD79A ITAM); test: In vivo tumor growth inhibition in ABC-DLBCL tumor model (OCI-Ly10 xenograft); settings: OCI-Ly10 in female SCID Beige mice; 21 continuous days qd po; Compound A 50 mg/kg, venetoclax 75 mg/kg
Description: Female SCID Beige mice were implanted with the ABC-DLBCL cell line OCI-Ly10, which harbors TLR (MYD88-L265P) and BCR (CD79A ITAM) pathway activating mutations. The mice were treated with Compound A (50 mg/kg, qd, po, suspension in 0.5% Tween 20 and 0.25% hydroxyethyl cellulose), venetoclax (75 mg/kg, qd, po, solution in 60% phosal 50PG, 30% PEG 400, and 10% ethanol) or the combination for 21 continuous days.
After the 21-day drug treatment period, the mice were given a 19-day dosing holiday. […] After the 19-day drug holiday, dosing of the respective drug treatments was reinstated to each cohort.

[2] = system: SU-DHL-2 cells (MYD88-S222R); test: In vivo tumor growth inhibition in ABC-DLBCL tumor model (SU-DHL-2 xenograft); settings: SU-DHL-2 in female SCID Beige mice; 27 continuous days qd po; Compound A/CA-4948 100 mg/kg, venetoclax 75 mg/kg
Description: Female SCID Beige mice were implanted with SU-DHL-2 cells which harbor MYD88-S222R pathway activating mutations. The mice were treated with Compound A (100 mg/kg, qd, po, suspension in 0.5% Tween 20 and 0.25% hydroxyethyl cellulose), venetoclax (75 mg/kg, qd, po, solution in 60% phosal 50PG, 30% PEG 400, and 10% ethanol) or the combination for 27 continuous days.
All in life data acquisition, including body weight, tumor length, tumor diameter, tumor ulceration, clinical signs and animal mortality was collected in Study Director. Tumor ulceration was scored on a 6 level system with severity of 4 or higher requiring attention. At the end of the study (24 hours after the last dose), all surviving animals were examined externally for possible clinical abnormalities or adverse clinical signs, weighed and tumor measurements were taken for the last time.

[3] = system: OCI-LY3; test: ABC-DLBCL MYD88-L265P xenograft tumor model, OCI-LY3; type: in vivo
[4] = system: OCI-LY10; test: ABC-DLBCL MYD88-L265P xenograft tumor model, OCI-LY10 (dose response); type: in vivo
[5] = system: ABC-DLBCL PDX tumors; test: ABC-DLBCL PDX tumors (MYD88 and CD79B double mutants); type: in vivo; settings: activating mutations in TLR/IL-1R and BCR pathways (MYD88 and CD79B double mutants)

SMILES | tumor growth inhibition (TGI) [1] | TGI % (Day 28) [2] | efficacy in xenograft tumor model [3] | efficacy in xenograft tumor model [4] | efficacy in PDX tumors [5]
Cc1cc(-c2nc(C(=O)Nc3cc4oc(N5CCOCC5)nc4nc3N3CC[C@@H](O)C3)co2)ccn1 [Compound A] | 63% | 66% | dose-dependent efficacy | dose-dependent efficacy | efficacious
CC1(C)CCC(CN2CCN(c3ccc(C(=O)NS(=O)(=O)c4ccc(NCC5CCOCC5)c([N+](=O)[O-])c4)c(Oc4cnc5[nH]ccc5c4)c3)CC2)=C(c2ccc(Cl)cc2)C1 [venetoclax, reference compound] | 71% |  |  |  | 
